Measured values as given in patent US20140243196A1, “Carbamoylmethoxy- and Carbamoylmethylthio- and Carbamoylmethylamino Benzamides for Combating Invertebrate Pests” (BASF SE, priority 2011, published 2014).

What was measured:
Type in all cases: in vivo
[1] = system: Boll Weevil (Anthonomus grandis); experiment: Boll weevil microtiter plate insect diet test; conditions: 120 h, egg and larval mortality, 5 days, read-out: mortality in comparison with untreated controls
Method: B.3 Boll Weevil (Anthonomus grandis)
For evaluating control of boll weevil (Anthonomus grandis) the test unit consisted of 24-well-microtiter plates containing an insect diet and 20-30 A. grandis eggs.
The compounds were formulated using a solution containing 75% v/v water and 25% v/v DMSO. Different concentrations of formulated compounds were sprayed onto the insect diet at 20 μl, using a custom built micro atomizer, at two replications.
After application, microtiter plates were incubated at about 23±1° C. and about 50±5% relative humidity for 5 days. Egg and larval mortality was then visually assessed.

[2] = system: Diamond Backmoth (Plutella xylostella); experiment: Diamond backmoth leaf-dip test on cabbage leaves; conditions: 3rd instar larvae on dipped cabbage leaves, 72 hours after treatment, read-out: mortality in comparison with untreated controls
Method: B.1 Diamond Backmoth (Plutella xylostella)
The active compound was dissolved at the desired concentration in a mixture of 1:1 (vol:vol) distilled water: acteon. Surfactant (Alkamuls® EL 620) was added at a rate of 0.1% (vol/vol). The test solution was prepared at the day of use.
Leaves of cabbage were dipped in test solution and air-dried. Treated leaves were placed in petri dishes lined with moist filter paper and inoculated with ten 3rd instar larvae. Mortality was recorded 72 hours after treatment. Feeding damages were also recorded using a scale of 0-100%.

[3] = system: Tobacco Budworm (Heliothis virescens); experiment: Tobacco budworm microtiter plate insect diet test; conditions: 120 h, egg and larval mortality, 5 days, read-out: mortality in comparison with untreated controls
Method: B.4 Tobacco Budworm (Heliothis virescens) I
For evaluating control of tobacco budworm (Heliothis virescens) the test unit consisted of 96-well-microtiter plates containing an insect diet and 15-25 H. virescens eggs.
The compounds were formulated using a solution containing 75% v/v water and 25% v/v DMSO. Different concentrations of formulated compounds were sprayed onto the insect diet at 10 μl, using a custom built micro atomizer, at two replications.
After application, microtiter plates were incubated at about 28±1° C. and about 80±5% relative humidity for 5 days. Egg and larval mortality was then visually assessed.

[4] = system: Green Peach Aphid (Myzus persicae); experiment: Green peach aphid spray test on bell pepper plants; conditions: 120 h, aphids on sprayed bell pepper plants, after 5 days, read-out: mortality in comparison with untreated controls
Excerpt: B.6 Green Peach Aphid (Myzus persicae)
(§1) The active compounds were formulated in cyclohexanone as a 10,000 ppm solution supplied in tubes. The tubes were inserted into an automated electrostatic sprayer equipped with an atomizing nozzle and they served as stock solutions for which lower dilutions were made in 50% acetone:50% water (v/v). A nonionic surfactant (Kinetic®) was included in the solution at a volume of 0.01% (v/v).
Bell pepper plants at the first true-leaf stage were infested prior to treatment by placing heavily infested leaves from the main colony on top of the treatment plants. Aphids were allowed to transfer overnight to accomplish an infestation of 30-50 aphids per plant and the host leaves were removed. The infested plants were then sprayed by an automated electrostatic plant sprayer equipped with an atomizing spray nozzle. The plants were dried in the sprayer fume hood, removed, and then maintained in a growth room under fluorescent lighting in a 24-hr photoperiod at about 25° C. and about 20-40% relative humidity. Aphid mortality on the treated plants, relative to mortality on untreated control plants, was determined after 5 days.

[5] = system: Southern Armyworm (Spodoptera eridiana); experiment: Southern armyworm foliar spray test on lima bean plants; conditions: 96 h, larvae on sprayed lima bean plants, 4 days after treatment, read-out: mortality in comparison with untreated controls
Method: B.2 Southern Armyworm (Spodoptera eridiana)
as §1
Lima bean plants (variety Sieva) were grown 2 plants to a pot and selected for treatment at the 1st true leaf stage. Test solutions were sprayed onto the foliage by an automated electrostatic plant sprayer equipped with an atomizing spray nozzle. The plants were dried in the sprayer fume hood and then removed from the sprayer. Each pot was placed into perforated plastic bags with a zip closure. About 10 to 11 armyworm larvae were placed into the bag and the bags zipped closed. Test plants were maintained in a growth room at about 25° C. and about 20-40% relative humidity for 4 days, avoiding direct exposure to fluorescent light (24 hour photoperiod) to prevent trapping of heat inside the bags. Mortality and reduced feeding were assessed 4 days after treatment, compared to untreated control plants.

Cc1cc(Cl)cc(C(=O)NOCC(=O)N(C)C)c1NC(=O)c1ccc(C(F)(F)F)cc1-c1ncccc1Cl [compound 1-1, 5-chloro-2-[2-(3-chloro-pyridin-2-yl)-4-trifluoromethyl-benzoylamino]-N-dimethylcarbamoylmethoxy-3-methyl-benzamide]
mortality at 2500 ppm [1]: > 75% | mortality at 500 ppm [2]: ≥ 75% | mortality at 2500 ppm [3]: > 75% | mortality at 2500 ppm [4]: > 75% | mortality at 500 ppm [5]: ≥ 75%
